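Cells were grown in 96-well plates and exposed to each compound for 48 hours at five concentrations; endpoints were interpolated linearly between bracketing concentrations, or set to the highest concentration if not reached. At the GI50, growth is halved. TGI: total growth inhibition.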
What was measured:
Experiment in all cases: DTP human tumour cell line panel, 48 h
DU-145 prostate = system: DU-145 prostate
SK-MEL-5 melanoma = system: SK-MEL-5 melanoma
MCF7 breast = system: MCF7 breast
UACC-257 melanoma = system: UACC-257 melanoma
HL-60(TB) leukemia = system: HL-60(TB) leukemia
HCT-15 colon = system: HCT-15 colon
NCI-H522 lung = system: NCI-H522 lung
EKVX NSCLC = system: EKVX NSCLC
K-562 leukemia = system: K-562 leukemia
HS 578T breast = system: HS 578T breast

SMILES | GI50 (DU-145 prostate) | TGI (DU-145 prostate) | GI50 (SK-MEL-5 melanoma) | TGI (SK-MEL-5 melanoma) | GI50 (MCF7 breast) | TGI (MCF7 breast) | GI50 (UACC-257 melanoma) | TGI (UACC-257 melanoma) | GI50 (HL-60(TB) leukemia) | TGI (HL-60(TB) leukemia) | GI50 (HCT-15 colon) | TGI (HCT-15 colon) | GI50 (NCI-H522 lung) | TGI (NCI-H522 lung) | GI50 (EKVX NSCLC) | TGI (EKVX NSCLC) | GI50 (K-562 leukemia) | TGI (K-562 leukemia) | GI50 (HS 578T breast) | TGI (HS 578T breast)
O=[N+]([O-])c1ccc(-c2nc(-c3ccccc3)c(-c3ccccc3)n2-c2ccccc2)cc1 | 2.72 µM | 12.2 µM | 1.8 µM | 3.81 µM | 2.04 µM | 6.28 µM | 2.39 µM | 5.87 µM | 2.41 µM | 5.83 µM | 2.82 µM | 8.76 µM | 3.05 µM | > 28.4 µM | 2.93 µM | > 26.6 µM | 3.24 µM | 95.9 µM | 2.74 µM | 14.4 µM
O=C(OCc1ccccc1)N1CCN(/[N+]([O-])=N/Oc2ccc([N+](=O)[O-])cc2[N+](=O)[O-])CC1 | 5.56 µM | 18.7 µM | 6.43 µM | 21.1 µM | 2.84 µM | 8.87 µM | 19.5 µM | 36.5 µM | 18.8 µM | 57.3 µM | 4.19 µM | 52.6 µM | 3.66 µM | > 100 µM | 16.7 µM | 35 µM | 4.07 µM | > 100 µM | 32.4 µM | 97.6 µM
CCCCCCCC/C=C/CCCCCCCC1=NCC[N+]1(CCO)CCO | 4.41 µM | 16.2 µM | 2.24 µM | 5.68 µM | 3.94 µM | 18.6 µM | 2.25 µM | 8.42 µM | 1.75 µM | 4.68 µM | 3.16 µM | 11 µM | 1.61 µM | 4.46 µM | 4.71 µM | 26.4 µM | 1.52 µM | 4.34 µM | 2.16 µM | 7.66 µM
O=C1OCC(c2cccs2)=C1Cl | 26.7 µM | > 100 µM | 86.3 µM | > 100 µM | 39.3 µM | > 100 µM | 41 µM | > 100 µM | > 100 µM | > 100 µM | 74.2 µM | > 100 µM | 42.4 µM | > 100 µM | 40.5 µM | > 100 µM | > 100 µM | > 100 µM | 39 µM | > 100 µM
CC(C)[C@@]12C[C@@H](OC(=O)[C@H]3CO3)[C@@](C)(O1)[C@@H]1CC[C@@H](C)[C@H]1[C@@H]2OC(=O)/C=C/c1ccccc1 | 31.5 µM | > 100 µM | 14.9 µM | 28.5 µM | 9.33 µM | > 100 µM | 19.5 µM | 50.6 µM | 13.4 µM | 44.5 µM | 11.1 µM | > 100 µM | 14.3 µM | 32.7 µM | 16.3 µM | > 75.6 µM | 18.5 µM | > 100 µM | 0.0736 µM | 0.501 µM

Reference: PubChem BioAssay (NCI)
